Data published in ChEMBL document CHEMBL4177696, “Identification of a diverse synthetic abietane diterpenoid library and insight into the structure-activity relationships for antibacterial activity” (Bioorg Med Chem Lett, 2017).
Converted amounts (≈) assume the structure as drawn.

Legend:
Format in all cases: functional
[1] = test system: Pseudomonas fluorescens; experiment: Antibacterial activity against Pseudomonas fluorescens measured after 24 hrs
[2] = test system: Escherichia coli; experiment: Antibacterial activity against Escherichia coli measured after 24 hrs
[3] = test system: Staphylococcus aureus; experiment: Antibacterial activity against Staphylococcus aureus measured after 24 hrs
[4] = test system: Bacillus subtilis; experiment: Antibacterial activity against Bacillus subtilis measured after 24 hrs

Row | SMILES | MIC [1] [mg/L] | MIC [2] [mg/L] | MIC [3] [mg/L] | MIC [4] [mg/L]
1 | C=C1C(=O)CC[C@]2(C)c3ccc(C(C)C)c(OC)c3CC[C@@H]12 | 25 (≈ 83.8 µM) | 6.3 (≈ 21.1 µM) | 25 (≈ 83.8 µM) | 12.5 (≈ 41.9 µM)
2 | CC(C)(C)C(=O)OC[C@H]1[C@H](O)CC[C@]2(C)c3ccccc3CC[C@@H]12 | 25 (≈ 75.7 µM) | 25 (≈ 75.7 µM) | 25 (≈ 75.7 µM) | 50 (≈ 151 µM)
3 | COC(=O)[C@]1(C)CCC[C@]2(C)c3ccc(C(C)C)c(NC(=O)Cn4cc(Cc5ccccc5)nn4)c3CC[C@@H]12 | 50 (≈ 94.6 µM) | 75 (≈ 142 µM) | 50 (≈ 94.6 µM) | 50 (≈ 94.6 µM)
4 | COC(=O)[C@]1(C)CCC[C@]2(C)c3ccc(C(C)C)c(NC(=O)Cn4cc(-c5ccc(OC)cc5)nn4)c3CC[C@@H]12 | 25 (≈ 45.9 µM) | 12.5 (≈ 22.9 µM) | 6.3 (≈ 11.6 µM) | 50 (≈ 91.8 µM)
5 | COC(=O)[C@]1(C)CCC[C@]2(C)c3ccc(C(C)C)c(NC(=O)Cn4cc(C5CC5)nn4)c3CC[C@@H]12 | 75 (≈ 157 µM) | 6.3 (≈ 13.2 µM) | 50 (≈ 104 µM) | 75 (≈ 157 µM)
6 | COC(=O)[C@]1(C)CCC[C@]2(C)c3ccc(C(C)C)c(NC(=O)Cn4cc(-c5ccccc5OC)nn4)c3CC[C@@H]12 | 25 (≈ 45.9 µM) | 75 (≈ 138 µM) | 75 (≈ 138 µM) | 50 (≈ 91.8 µM)
7 | COC(=O)c1nnn(CC(=O)Nc2c(C(C)C)ccc3c2CC[C@H]2[C@](C)(C(=O)OC)CCC[C@]32C)c1C(=O)OC | 50 (≈ 90.1 µM) | 25 (≈ 45.1 µM) | 25 (≈ 45.1 µM) | 75 (≈ 135 µM)
8 | COC(=O)[C@]1(C)CCC[C@]2(C)c3ccc(C(C)C)c(NC(=O)Cn4cc(-c5cccc(F)c5)nn4)c3CC[C@@H]12 | 12.5 (≈ 23.5 µM) | 25 (≈ 46.9 µM) | 12.5 (≈ 23.5 µM) | 6.3 (≈ 11.8 µM)
9 | COC(=O)[C@]1(C)CCC[C@]2(C)c3ccc(C(C)C)c(NC(=O)Cn4cc(-c5cccc(OC)c5)nn4)c3CC[C@@H]12 | 50 (≈ 91.8 µM) | 75 (≈ 138 µM) | 50 (≈ 91.8 µM) | 75 (≈ 138 µM)
10 | COC(=O)[C@]1(C)CCC[C@]2(C)c3ccc(C(C)C)c(NC(=O)Cn4cc(-c5ccccc5)nn4)c3CC[C@@H]12 | 50 (≈ 97.1 µM) | 25 (≈ 48.6 µM) | 50 (≈ 97.1 µM) | 25 (≈ 48.6 µM)
11 | COC(=O)[C@]1(C)CCC[C@]2(C)c3ccc(C(C)C)c(NC(=O)Cn4cc(-c5ccc(F)cc5)nn4)c3CC[C@@H]12 | 50 (≈ 93.9 µM) | 50 (≈ 93.9 µM) | 50 (≈ 93.9 µM) | 25 (≈ 46.9 µM)
12 | COC(=O)[C@]1(C)CCC[C@]2(C)c3ccc(C(C)C)c(NC(=O)Cn4cc(CBr)nn4)c3CC[C@@H]12 | 25 (≈ 47 µM) | 75 (≈ 141 µM) | 50 (≈ 94.1 µM) | 50 (≈ 94.1 µM)
13 | COC(=O)[C@]1(C)CCC[C@]2(C)c3ccc(C(C)C)c(NC(=O)Cn4cc(-c5ccccc5F)nn4)c3CC[C@@H]12 | 12.5 (≈ 23.5 µM) | 25 (≈ 46.9 µM) | 25 (≈ 46.9 µM) | 50 (≈ 93.9 µM)
14 | COC(=O)[C@]1(C)CCC[C@]2(C)c3ccc(C(C)C)c(NC(=O)Cn4cc([Si](C)(C)C)nn4)c3CC[C@@H]12 | 100 (≈ 196 µM) | 75 (≈ 147 µM) | 75 (≈ 147 µM) | 100 (≈ 196 µM)
15 | CCOCOC[C@]12CCC3=C(COC3=O)[C@@H]1CCc1c2ccc(C(C)C)c1OC | 100 (≈ 250 µM) | 100 (≈ 250 µM) | 100 (≈ 250 µM) | 100 (≈ 250 µM)
16 | C=C1[C@@H]2CCc3c(ccc(C(C)C)c3OC)[C@@]2(C)CC[C@@]1(O)CO | 25 (≈ 75.7 µM) | 50 (≈ 151 µM) | 50 (≈ 151 µM) | 25 (≈ 75.7 µM)
17 | COc1c(C(C)C)ccc2c1CC[C@H]1[C@@H]3COC(=O)[C@]3(O)CC[C@]21C | 100 (≈ 290 µM) | 50 (≈ 145 µM) | 100 (≈ 290 µM) | 100 (≈ 290 µM)
18 | COC(=O)[C@]1(C)CCC[C@]2(C)c3ccc(C(C)C)c(NC(=O)Cn4cc(CCC#N)nn4)c3CC[C@@H]12 | 50 (≈ 102 µM) | 50 (≈ 102 µM) | 50 (≈ 102 µM) | 75 (≈ 153 µM)
19 | COC(=O)c1cn(CC(=O)Nc2c(C(C)C)ccc3c2CC[C@H]2[C@](C)(C(=O)OC)CCC[C@]32C)nn1 | 50 (≈ 101 µM) | 75 (≈ 151 µM) | 75 (≈ 151 µM) | 50 (≈ 101 µM)
20 | COc1c(C(C)C)ccc2c1CC[C@H]1[C@H]3COC(=O)[C@@]3(O)CC[C@]21C | 100 (≈ 290 µM) | 100 (≈ 290 µM) | 75 (≈ 218 µM) | 100 (≈ 290 µM)
21 | COC(=O)[C@]1(C)CCC[C@]2(C)c3ccc(C(C)C)c(NC(=O)Cn4cc(COc5ccccc5)nn4)c3CC[C@@H]12 | 75 (≈ 138 µM) | 25 (≈ 45.9 µM) | 50 (≈ 91.8 µM) | 12.5 (≈ 22.9 µM)
22 | COC(=O)[C@]1(C)CCC[C@]2(C)c3ccc(C(C)C)c(NC(=O)Cn4cc(CNC(=O)OC(C)(C)C)nn4)c3CC[C@@H]12 | 25 (≈ 44 µM) | 100 (≈ 176 µM) | 75 (≈ 132 µM) | 50 (≈ 88.1 µM)
23 | COC(=O)[C@]1(C)CCC[C@]2(C)c3ccc(C(C)C)c(NC(=O)Cn4cc(C(O)c5ccccc5)nn4)c3CC[C@@H]12 (some centres undefined) | 75 (≈ 138 µM) | 50 (≈ 91.8 µM) | 25 (≈ 45.9 µM) | 75 (≈ 138 µM)
24 | C=C1C(CO)=CC[C@]2(C)c3ccc(C(C)C)c(OC)c3CC[C@@H]12 | 75 (≈ 240 µM) | 100 (≈ 320 µM) | 75 (≈ 240 µM) | 100 (≈ 320 µM)
25 | COc1c(C(C)C)ccc2c1CC[C@H]1C(=O)C(=C(SC)SC)CC[C@]21CO | 6.3 (≈ 15.5 µM) | 3.1 (≈ 7.62 µM) | 25 (≈ 61.5 µM) | 12.5 (≈ 30.7 µM)
26 | COC(=O)[C@]1(C)CCC[C@]2(C)c3ccc(C(C)C)c(NC(=O)Cn4cc(CCO)nn4)c3CC[C@@H]12 | 75 (≈ 155 µM) | 25 (≈ 51.8 µM) | 25 (≈ 51.8 µM) | 50 (≈ 104 µM)
